From patent US20200131144A1, “AMINE OR (THIO)AMIDE CONTAINING LXR MODULATORS” (Phenex-FXR GmbH, priority 2017, published 2020)

Experiments:
[1] = target: T1, GST-LXRβ ligand-binding domain (Homo sapiens, UniProt P55055, INS174Q); experiment: TR-FRETβ activity assay (NCoA3 coactivator peptide recruitment); assay type: biochemical; conditions: 1 μM 24(S)-25-epoxycholesterol as prestimulating agonist; inverse agonist unless *
T1 construct: amino acids 156-461; NP009052; made in house; host or cells: E. coli
T1 sequence (P55055 with tags, fused parts or gaps INS174Q limits assumed): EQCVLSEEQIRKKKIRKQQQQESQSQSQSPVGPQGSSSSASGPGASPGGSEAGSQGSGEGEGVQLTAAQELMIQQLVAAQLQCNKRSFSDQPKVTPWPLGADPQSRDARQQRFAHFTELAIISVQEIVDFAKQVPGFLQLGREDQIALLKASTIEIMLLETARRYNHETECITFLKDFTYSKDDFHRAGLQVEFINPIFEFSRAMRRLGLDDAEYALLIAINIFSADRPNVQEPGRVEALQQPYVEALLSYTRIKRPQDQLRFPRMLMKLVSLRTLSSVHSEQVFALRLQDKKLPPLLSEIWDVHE
Procedure, shortened: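 E. coli-expressed GST-LXRβ LBD (aa 156-461, 76 nM) with biotinylated NCoA3 peptide (400 nM), anti-GST-Tb cryptate donor and streptavidin-XL665 acceptor in 240 mM KCl, BSA, 0.002% Triton X-100. Equilibrated 1 h at 4° C; TR-FRET read at 615/665 nm, triplicates.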

[2] = target: T2, LXRβ ligand-binding domain (LBD) (Homo sapiens, UniProt P55055, INS174Q); experiment: LXR Gal4 reporter transient transfection assay, mammalian two-hybrid, LBD-M2H Gal4β; assay type: cell-based; conditions: HEK293 cells; inverse agonist unless *
T2 construct: or LXR (amino acids 156-461); expressed in transfected cells; host or cells: HEK293
T2 sequence (P55055 with tags, fused parts or gaps INS174Q limits assumed): T1 sequence (P55055 with tags, fused parts or gaps INS174Q limits assumed)
Description: (§1) The tested compounds were usually dissolved, tested and stored as 20 mM stock solutions in DMSO. Since sulfonyl acetic acid derivatives tend to decarboxylate under these conditions, these stock solutions were prepared, tested and stored as 20 mM DMSO stock solutions containing 100 mM trifluoroacetic acid (5 equivalents). Sulfonyl acetic acid derivatives are shelf stable as solid at rt for long time as reported by Griesbrecht et al. (Synlett 2010:374) or Faucher et al. (J. Med. Chem. 2004; 47:18).
(§2) LXR Gal4 Reporter Transient Transfection Assays
(§3) LXRα and LXRβ activity status was determined via detection of interaction with coactivator and corepressor proteins in mammalian two-hybrid experiments (M2H). For this, via transient transfection the full length (FL) proteins of LXRα (amino acids 1-447; NP005684; SEQ ID NO:1) or LXRβ-(amino acids 1-461; NP009052; SEQ ID NO:2) or the ligand-binding domains (LBD) of LXRα (amino acids 155-447 SEQ ID NO:3) or LXR (amino acids 156-461; SEQ ID NO:4) were expressed from pCMV-AD (Stratagene) as fusions to the transcriptional activation domain of NFkB. As cofactors, domains of either the steroid receptor coactivator 1 (SRC1; amino acids 552-887; SEQ ID NO:5) or of the corepressor NCoR (amino acids 1906-2312; NP006302; SEQ ID NO:6) were expressed as fusions to the DNA binding domain of the yeast transcription factor GAL4 (from pCMV-BD; Stratagene). Interaction was monitored via activation of a coexpressed Firefly Luciferase Reporter gene under control of a promoter containing repetitive GAL4 response elements (vector pFRLuc; Stratagene). Transfection efficiency was controlled via cotransfection of constitutively active pRL-CMV Renilla reniformis luciferase reporter (Promega). HEK293 cells were grown in minimum essential medium (MEM) with 2 mM L-glutamine and Earle's balanced salt solution supplemented with 8.3% fetal bovine serum, 0.1 mM non-essential amino acids, 1 mM sodium pyruvate, at 37° C. in 5% CO2. 3.5×10^4 cells/well were plated in 96-well cell culture plates in growth medium supplemented with 8.3% fetal bovine serum for 16-20 h to—90% confluency. For transfection, medium was taken off and LXR and cofactor expressing plasmids as well as the reporter plasmids are added in 30 μL OPTIMEM/well including polyethylene-imine (PEI) as vehicle. Typical amounts of plasmids transfected/well: pCMV-AD-LXR (5 ng), pCMV-BD-cofactor (5 ng), pFR-Luc (100 ng), pRL-CMV (0.5 ng). Compound stocks were prepared in DMSO, prediluted in MEM to a total volume of 120 μL, and added 4 h after addition of the transfection mixture (final vehicle concentration not exceeding 0.2%). Cells were incubated for additional 16 h, lysed for 10 min in 1×Passive Lysis Buffer (Promega) and Firefly and Renilla luciferase activities were measured sequentially in the same cell extract using buffers containing D-luciferine and coelenterazine, respectively. Measurements of luminescence were done in a BMG-luminometer.

[3] = target: T3, LXRα ligand-binding domain (LBD) (Homo sapiens, UniProt Q13133); experiment: LXR Gal4 reporter transient transfection assay, mammalian two-hybrid, LBD-M2H Gal4α; assay type: cell-based; conditions: HEK293 cells; inverse agonist unless *
T3 construct: expressed in transfected cells; host or cells: HEK293
T3 sequence (Q13133 155-447): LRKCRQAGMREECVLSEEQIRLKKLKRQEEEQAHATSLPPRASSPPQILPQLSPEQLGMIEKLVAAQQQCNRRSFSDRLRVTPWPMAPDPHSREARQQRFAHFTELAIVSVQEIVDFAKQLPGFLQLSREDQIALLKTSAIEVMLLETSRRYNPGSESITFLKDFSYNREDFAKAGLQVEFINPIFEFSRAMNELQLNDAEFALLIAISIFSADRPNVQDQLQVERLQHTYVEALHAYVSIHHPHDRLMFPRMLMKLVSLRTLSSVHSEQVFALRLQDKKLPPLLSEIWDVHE
Description: as §1, §2, §3

[4] = Pharmacokinetics in mice after single oral dosing, blood and liver exposure by LC-MS; assay type: in vivo, mice (C57/bl6/J); conditions: single oral dose 20 mg/kg, time point 4 h; for Kp at 4 h: male, C57/bl6/J, mouse, liver/blood, read-out: liver/blood ratio
Description: The pharmacokinetics of the compounds was assessed in mice after single dosing and oral administrations. Blood and liver exposure was measured via LC-MS.
The study design was as follows:
Animals: C57/bl6/J (Janvier) males Diet: standard rodent chow Dose: 20 mg/kg Animal handling: animals were withdrawn from food at least 12 h before administration Design: single dose oral administration, n=3 animals per group Sacrifice: at stated time point (4, 12 or 24 h) after administration Bioanalytics: LC-MS of liver and blood samples

Cc1ccc2ccccc2c1CN(Cc1ccc(C(F)(F)F)o1)Cc1ccc(-c2cccc(C(C)(C)C(=O)O)c2)c2nccn12 [7/15]
EC50 [1]: 1000 to 10000 nM
EC50 [2]: < 100 nM
EC50 [3]: 100 to 1000 nM

Cc1cc(C)c(C(=O)N(Cc2ccc(-c3cccc(CCC(=O)O)c3)cc2)Cc2ccc(C(F)(F)F)o2)c(C)c1 [10/2]
EC50 [1]: 1000 to 10000 nM
EC50 [2]: < 100 nM
EC50 [3]: 100 to 1000 nM

Cc1cc(C)c(C(=O)N(Cc2ccc(-c3cccc(OCC(=O)O)c3)cc2)Cc2ccc(C(F)(F)F)o2)c(C)c1 [10/3]
EC50 [1]: > 10000 nM
EC50 [2]: 100 to 1000 nM
EC50 [3]: 100 to 1000 nM

Cc1ccc2ccccc2c1CN(Cc1ccc(-c2cc(C(C)(C)C(=O)O)ccn2)cc1)Cc1ccc(C(F)(F)F)o1 [14/1]
EC50 [1]: 1000 to 10000 nM
EC50 [2]: < 100 nM
EC50 [3]: 100 to 1000 nM

Cc1ccc2ccccc2c1CN(Cc1ccc(-c2cccc(C(C)(C)C(=O)O)n2)cc1)Cc1ccc(C(F)(F)F)o1 [14/2]
EC50 [1]: 1000 to 10000 nM
EC50 [2]: < 100 nM
EC50 [3]: 100 to 1000 nM

Cc1ccc2ccccc2c1CN(Cc1ccc(-c2ccnc(C(C)(C)C(=O)O)c2)cc1)Cc1ccc(C(F)(F)F)o1 [14/3]
EC50 [1]: 100 to 1000 nM
EC50 [2]: < 100 nM
EC50 [3]: < 100 nM

Cc1cc(C)c(CN(Cc2ccc(C(F)(F)F)o2)Cc2ccc(-c3cccc(S(=O)(=O)CC(=O)O)c3)cc2Cl)c(C)c1 [15/3]
EC50 [1]: 1000 to 10000 nM
EC50 [2]: 100 to 1000 nM
EC50 [3]: 1000 to 10000 nM

COc1cc(-c2cccc(C(C)(C)C(=O)O)c2)cnc1CN(Cc1ccc(C(F)(F)F)o1)Cc1c(C)ccc2ccccc12 [22/4]
EC50 [1]: 100 to 1000 nM
EC50 [2]: < 100 nM
EC50 [3]: 1000 to 10000 nM

COc1cc(-c2cccc(C(C)(C)C(=O)O)c2)ccc1CN(Cc1ccc(C(F)(F)F)o1)Cc1c(C)ccc2ccccc12 [22/11]
Kp at 4 h [4]: 4.8
blood/plasma exposure [4]: 0.57 µM
liver exposure [4]: 2.75 µM
EC50 [1]: 100 to 1000 nM
EC50 [2]: < 100 nM
EC50 [3]: < 100 nM

COc1cc(-c2cccc(C(C)(C)C(=O)O)c2)ccc1CN(Cc1ccc(C(F)(F)F)o1)Cc1c(C)cc(C)cc1C [22/12]
EC50 [1]: 100 to 1000 nM
EC50 [2]: < 100 nM
EC50 [3]: 100 to 1000 nM

Cc1ccc(CN(Cc2ccc(-c3cccc(C(C)(C)C(=O)O)c3)cc2)Cc2ccc(C(F)(F)F)o2)c2ccccc12 [24/1]
Kp at 4 h [4]: 8
blood/plasma exposure [4]: 2.25 µM
liver exposure [4]: 18 µM
EC50 [1]: < 100 nM
EC50 [2]: < 100 nM
EC50 [3]: < 100 nM

Cc1ccc2cccnc2c1CN(Cc1ccc(-c2cccc(C(C)(C)C(=O)O)c2)cc1)Cc1ccc(C(F)(F)F)o1 [24/2]
EC50 [1]: 1000 to 10000 nM
EC50 [2]: < 100 nM
EC50 [3]: 100 to 1000 nM

Cc1ccc2ncccc2c1CN(Cc1ccc(-c2cccc(C(C)(C)C(=O)O)c2)cc1)Cc1ccc(C(F)(F)F)o1 [24/3]
Kp at 4 h [4]: 9.7
blood/plasma exposure [4]: 1.22 µM
liver exposure [4]: 11.8 µM
EC50 [1]: 100 to 1000 nM
EC50 [2]: < 100 nM
EC50 [3]: < 100 nM

Cc1ncc2ccccc2c1CN(Cc1ccc(-c2cccc(C(C)(C)C(=O)O)c2)cc1)Cc1ccc(C(F)(F)F)o1 [24/4]
EC50 [1]: 100 to 1000 nM
EC50 [2]: < 100 nM
EC50 [3]: < 100 nM

Cc1nc2ccccc2c(CN(Cc2ccc(-c3cccc(C(C)(C)C(=O)O)c3)cc2)Cc2ccc(C(F)(F)F)o2)c1C [24/5]
FRETβ [1]: D*
EC50 [2]: < 100 nM
EC50 [3]: < 100 nM

Cc1cc(C)c2ccccc2c1CN(Cc1ccc(-c2cccc(C(C)(C)C(=O)O)c2)cc1)Cc1ccc(C(F)(F)F)o1 [24/6]
EC50 [1]: 100 to 1000 nM
EC50 [2]: < 100 nM
EC50 [3]: < 100 nM

CC(C)(C(=O)O)c1cccc(-c2ccc(CN(Cc3ccc(C(F)(F)F)o3)Cc3cccc4nonc34)cc2)c1 [25/1]
FRETβ [1]: B*
EC50 [2]: < 100 nM
EC50 [3]: 100 to 1000 nM

Cc1ccc2ccccc2c1CN(Cc1ccc(-c2cncc(C(C)(C)C(=O)O)c2)cc1)Cc1ccc(C(F)(F)F)o1 [26/1]
EC50 [1]: 1000 to 10000 nM
EC50 [2]: < 100 nM
EC50 [3]: 100 to 1000 nM

Cc1ccc2ccccc2c1CN(Cc1ccc(-c2cccc(CC(C)(C)C(=O)O)c2)cc1)Cc1ccc(C(F)(F)F)o1 [26/2]
EC50 [1]: 1000 to 10000 nM
EC50 [2]: < 100 nM
EC50 [3]: 100 to 1000 nM

CC(C)(C(=O)O)c1cccc(-c2ccc(CN(Cc3ccc(C(F)(F)F)o3)C(=O)C34CC5CC(CC(C5)C3)C4)cc2)c1 [27/56]
FRETβ [1]: B*
EC50 [2]: < 100 nM
EC50 [3]: 100 to 1000 nM

CC(C)(C(=O)O)c1cccc(-c2ccc(CN(Cc3ccc(C(F)(F)F)o3)Cc3c(C#N)ccc4ccccc34)cc2)c1 [27/67]
Kp at 4 h [4]: 2.7
blood/plasma exposure [4]: 4.46 µM
liver exposure [4]: 12.1 µM
EC50 [1]: < 100 nM
EC50 [2]: < 100 nM
EC50 [3]: < 100 nM

CC(C)(C(=O)O)c1cccc(-c2ccc(CN(Cc3ccc(C(F)(F)F)o3)Cc3c(OC(F)F)ccc4ccccc34)cc2)c1 [27/68]
EC50 [1]: < 100 nM
EC50 [2]: < 100 nM
EC50 [3]: < 100 nM

CC(C)(C(=O)O)c1cccc(-c2ccc(CN(Cc3ccc(C(F)(F)F)o3)Cc3c(C(F)F)ccc4ccccc34)cc2)c1 [27/69]
EC50 [1]: 100 to 1000 nM
EC50 [2]: < 100 nM
EC50 [3]: < 100 nM

CC(C)(C(=O)O)c1cccc(-c2ccc(CN(Cc3ccc(C(F)(F)F)o3)C(=O)c3cccn4nccc34)cc2)c1 [27/70]
EC50 [1]: 100 to 1000 nM
EC50 [2]: < 100 nM
EC50 [3]: 100 to 1000 nM

CC(c1cccc2ccccc12)N(Cc1ccc(-c2cccc(S(=O)(=O)CC(=O)O)c2)cc1)Cc1ccc(C(F)(F)F)o1 (stereo not drawn) [Example 7, 2-((4′-(((1-(Naphthalen-1-yl)ethyl)((5-(trifluoromethyl)furan-2-yl)methyl)amino)methyl)-[1,1′-biphenyl]-3-yl)sulfonyl)acetic acid]
EC50 [1]: < 100 nM
EC50 [2]: < 100 nM
EC50 [3]: < 100 nM

COC(=O)CS(=O)(=O)c1cc(-c2ccc(CN(Cc3ccc(C(F)(F)F)o3)Cc3c(C)cc(C)cc3C)cc2)cc(F)c1CO [Example 13]
EC50 [1]: 100 to 1000 nM
EC50 [2]: < 100 nM
EC50 [3]: 1000 to 10000 nM
